Where “and” joins values, the source holds several entries; their conditions need not be identical. Equal entries are not always repeated.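 Results reflect a 48-hour exposure of cells in 96-well plates to compound at five concentrations. GI50: concentration for 50% inhibition of growth. TGI: total growth inhibition.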
Assays:
Test in all cases: inhibition of tumour cell growth, NCI panel, 48 h
[1] = tested on: OVCAR-3 ovarian
[2] = tested on: NCI-H23 lung
[3] = tested on: UO-31 renal
[4] = tested on: SN12C renal
[5] = tested on: SNB-19 CNS
[6] = tested on: HT29 colon
[7] = tested on: OVCAR-5 ovarian
[8] = tested on: M14 melanoma
[9] = tested on: HCT-15 colon
[10] = tested on: PC-3 prostate

Row | Structure (SMILES) | TGI [1] [µM] | TGI [2] [µM] | TGI [3] [µM] | TGI [4] [µM] | TGI [5] [µM] | TGI [6] [µM] | TGI [7] [µM] | TGI [8] [µM] | TGI [9] [µM] | GI50 [1] [µM] | GI50 [2] | GI50 [4] [µM] | GI50 [5] [µM] | GI50 [6] [µM] | GI50 [7] [µM] | GI50 [8] | GI50 [9] [µM] | GI50 [10] [µM] | TGI [10] [µM] | GI50 [3] [µM]
1 | COC1(OC)CCC2(C)OC(c3ccccc3)C1O2 (configuration not stated) | > 100 | > 100 | > 100 | > 100 | > 100 | > 100 | > 100 | > 100 | > 100 |  |  |  |  |  |  |  |  |  |  | 
2 | O=C(O)C1CC[N-]CC1.O=C(O)C1CC[N-]CC1.[NH2-].[NH2-].[Pt+4] | > 100 | > 100 |  | > 100 | > 100 | > 100 | > 100 | > 100 | > 100 | > 100 | > 100 µM | > 100 | > 100 | > 100 | > 100 | > 100 µM | > 100 | > 100 | > 100 | 
3 | C=C1C2CCCC1C1(S(C)(=O)=O)CCCCC21O (configuration not stated) | > 100 | > 100 | > 100 | > 100 | > 100 | > 100 | > 100 | > 100 | > 100 |  |  |  |  |  |  |  |  |  |  | 
4 | O=C(CC(=O)N1N=C(n2ccc3ccccc32)CC1c1ccccc1)Nc1ccccc1Cl (configuration not stated) | > 100 | > 100 | > 100 | > 100 | > 100 | > 100 |  | > 100 | > 100 |  |  |  |  |  |  |  |  |  |  | 
5 | CC1CN1c1c(C(=O)/C=C/c2ccc(F)cc2)c(-c2ccccc2)nn(C)c1=O (configuration not stated) | 28.9 | 27.1 | 25.5 | 29.1 | 30.3 | 30.9 | 25.2 | 30.5 |  |  |  |  |  |  |  |  |  |  |  | 
6 | Cc1cc(NS(=O)(=O)c2ccc(NC(=O)c3cccc4c(Nc5ccc(S(=O)(=O)Nc6cc(C)on6)cc5)c5ccc(Cl)cc5nc34)cc2)no1 | > 100 | > 100 | 86.3 | > 100 | 81.8 | > 100 | > 100 | > 100 | > 100 |  |  |  |  |  |  |  |  |  |  | 
7 | CS(=O)(=O)ON1C(=O)c2ccc(N)cc2C1=O | > 100 | > 100 | > 100 | > 100 | > 100 | > 100 | > 100 | > 100 | > 100 |  |  |  |  |  |  |  |  |  |  | 
8 | C=CCc1cc(O)ccc1O | 20.7 | > 100 | 24.4 | 49.4 | > 100 | > 100 | > 100 |  | > 100 | 7.64 | > 100 µM | 11 | > 100 | 80.2 | 26.7 |  | 36 | 12.5 | > 100 | 11
9 | O=C1CCC2(c3ccccc3)OCC([C@@H](O)c3ccccc3)N12 (some centres not stated) | > 100 | > 100 |  | > 100 | > 100 | > 100 | > 100 |  | > 100 |  |  |  |  |  |  |  |  |  |  | 
10 | N#C/C(=C\c1ccc(O)c(O)c1)C(=O)NCc1cccc(C(F)(F)F)c1 |  | 31.5 | 73.9 | 31.1 | > 100 | 56.3 | 55 |  | 46.3 |  | 12.2 µM | 11.3 | 19.4 | 22 | 19.6 |  | 3.64 | 19.7 | > 100 | 11.8
11 | CN1C(=O)[C@@H](CC2CCCC2)N(C2CCCC2)c2nc(Nc3cc(Cl)c(O)c(Cl)c3)ncc21 | 73.9 | > 100 |  | > 100 | > 100 | 88.3 | > 100 | > 100 | 56.2 | 21.8 | 31.3 µM | 21.4 | 28.3 | 26.7 | 27.7 | 22.2 µM | 14.6 | 14.1 | > 100 | 
12 | COc1c(CC(C)=O)c2ccccc2n1C(C)=O | > 100 | > 100 | > 100 | > 100 | > 100 | > 100 |  | > 100 | > 100 |  |  |  |  |  |  |  |  |  |  | 
13 | O=c1[nH]c(-c2ccccc2)nc2cc([N+](=O)[O-])c(/C(Cl)=C/c3ccccc3)cc12 | > 100 | > 100 | > 100 | > 100 | > 100 |  | > 100 |  | > 100 |  |  |  |  |  |  |  |  |  |  | 
14 | Cc1[nH]c2ccccc2c1/C=C/c1c(C)[nH]c2ccccc12 | > 100 | > 100 | > 100 |  |  | > 100 | > 100 | > 100 | > 100 |  |  |  |  |  |  |  |  |  |  | 
15 | CCN1C[C@@H](C)n2c(c(O)c3c(=O)n(Cc4ccc(F)c(Cl)c4)nc(C(=O)NC)c32)C1=O |  | 8.62 | > 100 | > 100 | > 100 | 15.5 | > 100 | 39.5 | 8.28 |  | 2.7 µM | 3.08 | 3.37 | 3.9 | 3.86 | 3.64 µM | 2.57 | 3.27 | 32 | 2.43
16 | O=C(CCl)N1CCN(c2ccccc2)CC1 |  | 35.6 | 32 |  | > 100 | 41.4 | 34.9 | 35.2 | 39.2 |  |  |  |  |  |  |  |  |  | 59.4 | 
17 | CCP(C)(=O)CC | > 100 | > 100 | > 100 | > 100 | > 100 | > 100 | > 100 | > 100 | > 100 |  |  |  |  |  |  |  |  |  |  | 
18 | CC(C)(C)c1cc(Cc2ccc(S(C)(=O)=O)cc2)c(O)c(C(C)(C)C)c1 |  | 31.3 | 29.6 | 28.6 | 29 | 28.6 | 27.4 | 28.9 | 31 |  |  |  |  |  |  |  |  |  |  | 
19 | CC(=O)NNc1nc(C)c(C(=O)/C=C/c2ccc(N(C)C)cc2)s1 | > 100 | > 100 | > 100 | > 100 |  | > 100 | > 100 |  | > 100 |  |  |  |  |  |  |  |  |  |  | 
20 | CCN(CC)CCN1C(=O)c2c(c3c4cccc(Cl)c4n(C4OC(CO)C(OC)C(O)C4O)c3c3[nH]c4c(Cl)cccc4c23)C1=O (configuration not stated) |  |  |  |  |  |  |  |  |  |  | 0.000398 µM and < 0.0329 µM and < 0.01 µM |  |  | < 0.0001 |  | 0.000565 µM and < 0.0368 µM and < 0.0145 µM |  |  |  | 
21 | CN(C)CC1CCCC/C1=N\OC(=O)c1ccccc1 (configuration not stated) | > 100 | > 100 | > 100 | > 100 |  | > 100 | > 100 | > 100 | > 100 |  |  |  |  |  |  |  |  |  |  | 
